This note sets out measurements from ChEMBL document CHEMBL4311960, “Two optimized antimicrobial peptides with therapeutic potential for clinical antibiotic-resistant Staphylococcus aureus” (Eur J Med Chem, 2019).

In brackets after ≈: the same amount, converted by molar mass.

Common to all, as to format: functional
Experiment [1] has as its system Staphylococcus aureus. The experiment can be described thus: Antibacterial activity against Staphylococcus aureus ATCC 6538 assessed as reduction in bacterial growth incubated for 24 hrs by serial dilution method. To be noted: ATCC 6538, 24 h.
For experiment [2], the system named is Staphylococcus aureus. Kind of experiment: Antibacterial activity against methicillin-resistant Staphylococcus aureus ATCC 19041 assessed as reduction in bacterial growth incubated for 24 hrs by serial dilution method. To be noted: ATCC 19041, 24 h.
In experiment [3] the test system is Staphylococcus aureus. Kind of experiment: Antibacterial activity against methicillin-resistant Staphylococcus aureus ATCC 19047 assessed as reduction in bacterial growth incubated for 24 hrs by serial dilution method. To be noted: ATCC 19047, 24 h.
Experiment [4] has as its system Staphylococcus aureus. The experiment can be described thus: Antibacterial activity against Staphylococcus aureus ATCC 8325.4 assessed as reduction in bacterial growth incubated for 24 hrs by serial dilution method. Particulars: ATCC 8325.4, 24 h.
Experiment [5] deals with Staphylococcus aureus. The experiment can be described thus: Antibacterial activity against Staphylococcus aureus ATCC 25923 assessed as reduction in bacterial growth at MIC measured after 15 passages.
Experiment [6] has as its system Staphylococcus aureus. The experiment can be described thus: Antibacterial activity against methicillin-resistant Staphylococcus aureus ATCC 18466 assessed as reduction in bacterial growth incubated for 24 hrs by serial dilution method. Particulars: ATCC 18466, 24 h, read-out: MIC.
Experiment [7] relates to Staphylococcus aureus. The experiment can be described thus: Antibacterial activity against methicillin-resistant Staphylococcus aureus ATCC 19167 assessed as reduction in bacterial growth incubated for 24 hrs by serial dilution method. To be noted: ATCC 19167, 24 h.
Experiment [8] concerns Staphylococcus aureus. Kind of experiment: Ratio of MIC for resistant Staphylococcus aureus ATCC 25923 for 15 days to MIC for Staphylococcus aureus ATCC 25923 for 24 hrs.
In experiment [9] the test system is Staphylococcus aureus. The experiment can be described thus: Antibacterial activity against methicillin-resistant Staphylococcus aureus ATCC 18475 assessed as reduction in bacterial growth incubated for 24 hrs by serial dilution method. Particulars: ATCC 18475, 24 h.
In experiment [10] the test system is Staphylococcus aureus. The experiment can be described thus: Antibacterial activity against methicillin-resistant Staphylococcus aureus ATCC 19423 assessed as reduction in bacterial growth incubated for 24 hrs by serial dilution method. Particulars: ATCC 19423, 24 h.
Experiment [11] relates to Staphylococcus aureus. Kind of experiment: Antibacterial activity against methicillin-resistant Staphylococcus aureus ATCC 18878 assessed as reduction in bacterial growth incubated for 24 hrs by serial dilution method. To be noted: ATCC 18878, 24 h.
The subject of experiment [12] is Staphylococcus aureus. Kind of experiment: Antibacterial activity against methicillin-resistant Staphylococcus aureus ATCC 19916 assessed as reduction in bacterial growth incubated for 24 hrs by serial dilution method. To be noted: ATCC 19916, 24 h.
For experiment [13], the system named is Staphylococcus aureus. Kind of experiment: Antibacterial activity against Staphylococcus aureus ATCC 25923 assessed as reduction in bacterial growth incubated for 24 hrs by serial dilution method. Particulars: ATCC 25923, 24 h, read-out: MIC.
Experiment [14] has as its system Staphylococcus aureus. The experiment can be described thus: Antibacterial activity against methicillin-resistant Staphylococcus aureus ATCC 19494 assessed as reduction in bacterial growth incubated for 24 hrs by serial dilution method. Particulars: ATCC 19494, 24 h.
Experiment [15] has as its system Staphylococcus aureus. Kind of experiment: Antibacterial activity against methicillin-resistant Staphylococcus aureus ATCC 18858 assessed as reduction in bacterial growth incubated for 24 hrs by serial dilution method. Particulars: ATCC 18858, 24 h.
The subject of experiment [16] is Staphylococcus aureus. Kind of experiment: Antibacterial activity against methicillin-resistant Staphylococcus aureus ATCC 18567 assessed as reduction in bacterial growth incubated for 24 hrs by serial dilution method. Particulars: ATCC 18567, 24 h.
In experiment [17] the test system is Staphylococcus aureus. Kind of experiment: Antibacterial activity against methicillin-resistant Staphylococcus aureus ATCC 19102 assessed as reduction in bacterial growth incubated for 24 hrs by serial dilution method. Particulars: ATCC 19102, 24 h.
Experiment [18] has as its system Staphylococcus aureus. Kind of experiment: Antibacterial activity against methicillin-resistant Staphylococcus aureus ATCC 19952 assessed as reduction in bacterial growth incubated for 24 hrs by serial dilution method. Particulars: ATCC 19952, 24 h.
Experiment [19] has as its system Staphylococcus aureus. Kind of experiment: Antibacterial activity against Staphylococcus aureus ATCC 29213 assessed as reduction in bacterial growth at MIC measured after 15 passages.
The subject of experiment [20] is Staphylococcus aureus. The experiment can be described thus: Antibacterial activity against methicillin-resistant Staphylococcus aureus ATCC 19900 assessed as reduction in bacterial growth incubated for 24 hrs by serial dilution method. Particulars: ATCC 19900, 24 h.
The subject of experiment [21] is Staphylococcus aureus. The experiment can be described thus: Ratio of MIC for resistant Staphylococcus aureus ATCC 29213 for 15 days to MIC for Staphylococcus aureus ATCC 29213 for 24 hrs.
Experiment [22] deals with Staphylococcus aureus. The experiment can be described thus: Antibacterial activity against methicillin-resistant Staphylococcus aureus ATCC 18908 assessed as reduction in bacterial growth incubated for 24 hrs by serial dilution method. To be noted: ATCC 18908, 24 h.
The subject of experiment [23] is Staphylococcus aureus. The experiment can be described thus: Antibacterial activity against Staphylococcus aureus ATCC 29213 assessed as reduction in bacterial growth incubated for 24 hrs by serial dilution method. To be noted: ATCC 29213, 24 h.
Experiment [24] relates to Staphylococcus aureus. The experiment can be described thus: Antibacterial activity against methicillin-resistant Staphylococcus aureus ATCC 19498 assessed as reduction in bacterial growth incubated for 24 hrs by serial dilution method. To be noted: ATCC 19498, 24 h.

`Cc1onc(-c2ccccc2)c1C(=O)N[C@@H]1C(=O)N2[C@@H]1SC(C)(C)[C@@H]2C(=O)O` [OXACILLIN]: the MIC in the experiment on Staphylococcus aureus [1] was 0.5 µg/mL (≈ 1.25 µM); in the experiment with Staphylococcus aureus [2] it was greater than 1200 µg/mL; with Staphylococcus aureus [3] it was greater than 1200 µg/mL; in the experiment with Staphylococcus aureus [4], 0.5 µg/mL (≈ 1.25 µM); with Staphylococcus aureus [6] it was greater than 1200 µg/mL; in the experiment with Staphylococcus aureus [7], greater than 1200 µg/mL. Also, the MIC in the experiment on Staphylococcus aureus [9] is greater than 1200 µg/mL; with Staphylococcus aureus [10], greater than 1200 µg/mL; in the experiment on Staphylococcus aureus [11], greater than 1200 µg/mL; with Staphylococcus aureus [12] it was greater than 1200 µg/mL; in the experiment with Staphylococcus aureus [13], 0.5 µg/mL (≈ 1.25 µM); with Staphylococcus aureus [14], greater than 1200 µg/mL. Also, the MIC in the experiment with Staphylococcus aureus [15], in the experiment with Staphylococcus aureus [16], in the experiment on Staphylococcus aureus [17], in the experiment with Staphylococcus aureus [18], in the experiment with Staphylococcus aureus [20] and in the experiment on Staphylococcus aureus [22] was greater than 1200 µg/mL in each case. The MIC in the experiment with Staphylococcus aureus [23] is 1 µg/mL (≈ 2.49 µM); in the experiment on Staphylococcus aureus [24], greater than 1200 µg/mL. Also, the “fold change (FC)” value in the experiment with Staphylococcus aureus [5] and in the experiment on Staphylococcus aureus [19] was 8 each time. Moreover, the Ratio in the experiment on Staphylococcus aureus [8] and in the experiment on Staphylococcus aureus [21] was 8 each time.
Consider `COc1cccc(OC)c1C(=O)N[C@@H]1C(=O)N2[C@@H]1SC(C)(C)[C@@H]2C(=O)O` [METHICILLIN], for which the MIC in the experiment on Staphylococcus aureus [1] was 1 µg/mL (≈ 2.63 µM); with Staphylococcus aureus [2], greater than 1200 µg/mL; with Staphylococcus aureus [3], greater than 1200 µg/mL; in the experiment with Staphylococcus aureus [4], 1 µg/mL (≈ 2.63 µM); with Staphylococcus aureus [6] it was greater than 1200 µg/mL; in the experiment on Staphylococcus aureus [7], greater than 1200 µg/mL. Further, the MIC is greater than 1200 µg/mL in the experiment with Staphylococcus aureus [9]; greater than 1200 µg/mL in the experiment on Staphylococcus aureus [10]; greater than 1200 µg/mL with Staphylococcus aureus [11]; greater than 1200 µg/mL in the experiment with Staphylococcus aureus [12]; 1 µg/mL (≈ 2.63 µM) in the experiment on Staphylococcus aureus [13]; greater than 1200 µg/mL with Staphylococcus aureus [14]. The MIC in the experiment on Staphylococcus aureus [15], in the experiment on Staphylococcus aureus [16], in the experiment on Staphylococcus aureus [17], in the experiment with Staphylococcus aureus [18], in the experiment on Staphylococcus aureus [20] and in the experiment with Staphylococcus aureus [22] was greater than 1200 µg/mL in each case. The MIC with Staphylococcus aureus [23] was 1 µg/mL (≈ 2.63 µM); in the experiment with Staphylococcus aureus [24], greater than 1200 µg/mL. Moreover, the “fold change (FC)” value in the experiment on Staphylococcus aureus [5] and in the experiment on Staphylococcus aureus [19] was 8 - 16 in each case. In addition, the Ratio in the experiment with Staphylococcus aureus [8] and with Staphylococcus aureus [21] was 8 - 16 each time.

The MIC is the least concentration at which growth counts as inhibited.
